Source: patent publication US9499553B2 (CHUGAI SEIYAKU KABUSHIKI KAISHA, priority 2013, dated 2016)

tested on: rat small-intestinal brush border membrane vesicles; assay: Inhibitory effect on 33PO4 uptake into rat small-intestinal brush border membrane vesicles (rapid filtration method); format: biochemical; conditions: 1 μM test compound; 33PO4 uptake into rat small-intestinal BBMVs, reacted for 60 seconds
Experimental: Test Example 1: Inhibitory Effect on ^33PO4 Uptake into Rat Small-Intestinal Brush Border Membrane Vesicles Brush border membrane vesicles (BBMVs) were prepared using the upper region of the small intestine of each Wistar female rat (4-5 weeks old). The preparation of BBMVs was performed according to the method of Murer et al. (Murer […]. Sodium/proton antiport in brush-border-membrane vesicles isolated from rat small intestine and kidney. 1976. J Am Soc Nephrol. 1998 January; 9 (1): 143-50). The ^33PO4 transport activity of the small-intestinal BBMVs was determined by the rapid filtration method. […] Then, ice-cold buffer C (110 mM NaCl, 1 mM KH2PO4, and 10 mM HEPES (pH 7.5)) was added to each reaction mixture, which was immediately suction-filtered through a Millipore filter. The filter was washed with buffer C, and each sample was then dissolved in a liquid scintillator. The amount of ^33PO4 uptake into BBMVs was measured using a liquid scintillation counter.

Row | SMILES | Rate of uptake inhibition (%) (1 μM)
1 | C[C@]12CCCN1N(Cc1cccc(F)c1F)C(=O)C(C(=O)Nc1ccc(Br)c(C(F)(F)F)c1)=C2O [Example 30] | 71
2 | C[C@]12CCCN1N(Cc1cccc(F)c1F)C(=O)C(C(=O)Nc1ccc(Br)c(Cl)c1)=C2O [Example 31] | 76
3 | COc1cccc(-c2cc(C(F)(F)F)ccc2NC(=O)C2=C(O)[C@@]3(C)CCCN3N(Cc3cccc(F)c3F)C2=O)c1OC [Example 44] | 94
4 | COc1ccc(CN2C(=O)C(C(=O)Nc3cc(F)c(Br)c(F)c3)=C(O)[C@@]3(C)CCCN23)c(OC)c1 [Example 58] | 46

molecular target: T1, human NaPi-IIb (Homo sapiens, UniProt O95436); assay: Inhibitory effect on 33PO4 uptake into human NaPi-IIb-expressing CHO cells; format: cell-based; conditions: read-out: IC50
T1 construct: expressed in transfected cells
T1 sequence (O95436 1-690): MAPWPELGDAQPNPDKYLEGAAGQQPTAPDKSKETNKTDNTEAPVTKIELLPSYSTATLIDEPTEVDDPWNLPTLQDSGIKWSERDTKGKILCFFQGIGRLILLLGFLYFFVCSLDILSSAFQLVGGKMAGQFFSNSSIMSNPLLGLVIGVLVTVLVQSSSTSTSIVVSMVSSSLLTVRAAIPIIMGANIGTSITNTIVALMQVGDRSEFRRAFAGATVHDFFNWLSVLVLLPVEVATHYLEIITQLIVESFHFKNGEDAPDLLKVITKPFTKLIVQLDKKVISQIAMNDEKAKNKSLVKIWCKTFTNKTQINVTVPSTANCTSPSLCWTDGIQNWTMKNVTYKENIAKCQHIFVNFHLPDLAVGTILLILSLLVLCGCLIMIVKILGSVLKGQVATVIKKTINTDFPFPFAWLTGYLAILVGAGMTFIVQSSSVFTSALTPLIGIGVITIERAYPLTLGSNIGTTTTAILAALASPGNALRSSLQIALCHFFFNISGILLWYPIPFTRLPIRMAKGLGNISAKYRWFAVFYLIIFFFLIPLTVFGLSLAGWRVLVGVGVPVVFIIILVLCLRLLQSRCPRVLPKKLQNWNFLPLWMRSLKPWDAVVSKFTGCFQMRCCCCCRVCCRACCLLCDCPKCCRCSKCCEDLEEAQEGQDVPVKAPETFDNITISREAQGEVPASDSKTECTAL
Summary of the method: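 Uptake of ³³PO4 was measured by scintillation counting after ice-cold buffer A washes. Cells were CHO stably expressing human NaPi-IIb, seeded overnight, and exposed to ³³PO4 in buffer A at room temperature.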

Row | SMILES | IC50 [µM]
5 | C[C@]12CCCN1N(Cc1cccc(F)c1F)C(=O)C(C(=O)Nc1ccc(Br)c(C(F)(F)F)c1)=C2O [Example 30] | 2.3

same assay, conditions: read-out: IC50 against 33PO4 uptake into human NaPi-IIb-expressing cells

Row | SMILES | IC50 [µM]
6 | CN(CCOCCOCCOCCOCCOc1ccc(CN2C(=O)C(C(=O)Nc3ccc(C(F)(F)F)cc3-c3cc(C(F)(F)F)ncn3)=C(O)C3(CCCC3)N2C)c(F)c1F)C[C@@H](O)[C@H](O)[C@@H](O)[C@@H](O)CO [Example 421, 7-[[2,3-Difluoro-4-[2-[2-[2-[2-[2-[methyl-[(2R,3 S,4S,5 S)-2,3,4,5,6-pentahydroxyhexyl]amino]ethoxy]ethoxy]ethoxy]ethoxy]ethoxy]phenyl]methyl]-10-hydroxy-6-methyl-8-oxo-N-[4-(trifluoromethyl)-2-[6-(trifluoromethyl)pyrimidin-4-yl]phenyl]-6,7-diazaspiro[4.5]dec-9-ene-9-carboxamide] | 19.5
7 | CN(C[C@H](O)[C@@H](O)[C@H](O)[C@H](O)CO)C(=O)CCOCCOCCOCCOc1ccc(CN2C(=O)C(C(=O)Nc3ccc(C(F)(F)F)cc3-c3cc(C(F)(F)F)ncn3)=C(O)C3(CCCC3)N2C)c(F)c1F [Example 423] | 20
8 | CN1N(Cc2ccc(OCCOCCOCCOCCC(=O)NCC(O)CO)c(F)c2F)C(=O)C(C(=O)Nc2ccc(C(F)(F)F)cc2-c2cc(C(F)(F)F)ncn2)=C(O)C12CCCC2 (stereo not shown) [Example 424] | 29
9 | CN(CCOCCC(=O)N(C)C[C@H](O)[C@@H](O)[C@H](O)[C@H](O)CO)CCOc1ccc(CN2C(=O)C(C(=O)Nc3ccc(C(F)(F)F)cc3-c3cc(C(F)(F)F)ncn3)=C(O)C3(CCCC3)N2C)c(F)c1F [Example 425] | 28.1
10 | CN(CCOCCC(=O)NCC(O)CO)CCOc1ccc(CN2C(=O)C(C(=O)Nc3ccc(C(F)(F)F)cc3-c3cc(C(F)(F)F)ncn3)=C(O)C3(CCCC3)N2C)c(F)c1F (stereo not shown) [Example 426] | 26.1
11 | CN1N(Cc2ccc(OCCOCCNC(=O)[C@@H](O)[C@H](O)[C@@H](O)[C@@H](O)CO)c(F)c2F)C(=O)C(C(=O)Nc2ccc(C(F)(F)F)cc2-c2cc(C(F)(F)F)ncn2)=C(O)C12CCCC2 [Example 427] | 17.4
12 | CN1N(Cc2ccc(OCCOCCOCCOCCNC(=O)[C@@H](O)[C@H](O)[C@@H](O)[C@@H](O)CO)c(F)c2F)C(=O)C(C(=O)Nc2ccc(C(F)(F)F)cc2-c2cc(C(F)(F)F)ncn2)=C(O)C12CCCC2 [Example 428, 7-[[2,3-Difluoro-4-[2-[2-[2-[2-[[(2S,3R,4S,5S)-2,3,4,5,6-pentahydroxyhexanoyl]amino]ethoxy]ethoxy]ethoxy]ethoxy]phenyl]methyl]-10-hydroxy-6-methyl-8-oxo-N-[4-(trifluoromethyl)-2-[6-(trifluoromethyl)pyrimidin-4-yl]phenyl]-6,7-diazaspiro[4.5]dec-9-ene-9-carboxamide] | 23
13 | COCCN(C)CCOCCOc1ccc(CN2C(=O)C(C(=O)Nc3ccc(C(F)(F)F)cc3-c3cc(C(F)(F)F)ncn3)=C(O)C3(CCCC3)N2C)c(F)c1F [Example 429, 7-[[2,3-Difluoro-4-[2-[2-[2-methoxyethyl(methyl)amino]ethoxy]ethoxy]phenyl]methyl]-10-hydroxy-6-methyl-8-oxo-N-[4-(trifluoromethyl)-2-[6-(trifluoromethyl)pyrimidin-4-yl]phenyl]-6,7-diazaspiro[4.5]dec-9-ene-9-carboxamide] | 7.7
14 | COCCN(C)CCOCCOCCOc1ccc(CN2C(=O)C(C(=O)Nc3ccc(C(F)(F)F)cc3-c3cc(C(F)(F)F)ncn3)=C(O)C3(CCCC3)N2C)c(F)c1F [Example 430] | 4.6
15 | COCCN(C)CCOCCOCCOCCOc1ccc(CN2C(=O)C(C(=O)Nc3ccc(C(F)(F)F)cc3-c3cc(C(F)(F)F)ncn3)=C(O)C3(CCCC3)N2C)c(F)c1F [Example 431] | 6.2
16 | COCCN(C)CCOCCOCCOCCOCCOc1ccc(CN2C(=O)C(C(=O)Nc3ccc(C(F)(F)F)cc3-c3cc(C(F)(F)F)ncn3)=C(O)C3(CCCC3)N2C)c(F)c1F [Example 432] | 6.3
17 | CN1N(Cc2ccc(OCCNCCS(=O)(=O)O)c(F)c2F)C(=O)C(C(=O)Nc2ccc(C(F)(F)F)cc2-c2cc(C(F)(F)F)ncn2)=C(O)C12CCCC2 [Example 435] | 17.1
18 | COCCN(C)CCOc1c(I)cc(CN2C(=O)C(C(=O)Nc3ccc(C(F)(F)F)cc3-c3cc(C(F)(F)F)ncn3)=C(O)C3(CCCC3)N2C)c(F)c1F [Example 437, 7-[[2,3-Difluoro-5-iodo-4-[2-[2-methoxyethyl(methyl)amino]ethoxy]phenyl]methyl]-10-hydroxy-6-methyl-8-oxo-N-[4-(trifluoromethyl)-2-[6-(trifluoromethyl)pyrimidin-4-yl]phenyl]-6,7-diazaspiro[4.5]dec-9-ene-9-carboxamide] | 19.5
19 | COCCCN(C)C(=O)c1cc(CN2C(=O)C(C(=O)Nc3ccc(C(F)(F)F)cc3-c3cc(C(F)(F)F)ncn3)=C(O)C3(CCCC3)N2C)c(F)c(F)c1OCCN(C)CCOC [Example 438] | 21.9
20 | COCCOc1cc(NC(=O)C2=C(O)C3(CCCC3)N(C)N(Cc3ccc(OCCN(C)CCOC)c(F)c3F)C2=O)c(-c2ncnc(C(F)(F)F)c2C)cc1C(F)(F)F [Example 439, 7-[[2,3-Difluoro-4-[2-[2-methoxyethyl(methyl)amino]ethoxy]phenyl]methyl]-10-hydroxy-N-[5-(2-methoxyethoxy)-2-[5-methyl-6-(trifluoromethyl)pyrimidin-4-yl]-4-(trifluoromethyl)phenyl]-6-methyl-8-oxo-6,7-diazaspiro[4.5]dec-9-ene-9-carboxamide] | 18.9
21 | COCCN(C)CCOc1c(-c2cccnc2)cc(CN2C(=O)C(C(=O)Nc3ccc(C(F)(F)F)cc3-c3cc(C(F)(F)F)ncn3)=C(O)C3(CCCC3)N2C)c(F)c1F [Example 440, 9-[[2,3-Difluoro-4-[2-[2-methoxyethyl(methyl)amino]ethoxy]-5-(3-pyridinyl)phenyl]methyl]-6-hydroxy-10-methyl-8-oxo-N-[4-(trifluoromethyl)-2-[6-(trifluoromethyl)pyrimidin-4-yl]phenyl]-9,10-diazaspiro[4.5]dec-6-ene-7-carboxamide] | 22.6
22 | CN(C[C@H](O)[C@@H](O)[C@H](O)[C@H](O)CO)C(=O)COCCOCCOCCOCCOc1ccc(CN2C(=O)C(C(=O)Nc3ccc(C(F)(F)F)cc3-c3cc(C(F)(F)F)ncn3)=C(O)C3(CCCC3)N2C)c(F)c1F [Example 441, 7-[[2,3-Difluoro-4-[2-[2-[2-[2-[2-[methyl-[(2S,3R,4R,5R)-2,3,4,5,6-pentahydroxyhexyl]amino]-2-oxoethoxy]ethoxy]ethoxy]ethoxy]ethoxy]phenyl]methyl]-10-hydroxy-6-methyl-8-oxo-N-[4-(trifluoromethyl)-2-[6-(trifluoromethyl)pyrimidin-4-yl]phenyl]-6,7-diazaspiro[4.5]dec-9-ene-9-carboxamide] | 21.4
23 | COCCN(C)CCN(C)c1ccc(CN2C(=O)C(C(=O)Nc3ccc(C(F)(F)F)cc3-c3cc(C(F)(F)F)ncn3)=C(O)C3(CCCC3)N2C)c(F)c1F [Example 442] | 6.3
24 | CCN(CCN(C)CCOC)c1ccc(CN2C(=O)C(C(=O)Nc3ccc(C(F)(F)F)cc3-c3cc(C(F)(F)F)ncn3)=C(O)C3(CCCC3)N2C)c(F)c1F [Example 443] | 8.9
25 | CCCN(CCN(C)CCOC)c1ccc(CN2C(=O)C(C(=O)Nc3ccc(C(F)(F)F)cc3-c3cc(C(F)(F)F)ncn3)=C(O)C3(CCCC3)N2C)c(F)c1F [Example 444] | 7.4
26 | COCCN(C)CCN(c1ccc(CN2C(=O)C(C(=O)Nc3ccc(C(F)(F)F)cc3-c3cc(C(F)(F)F)ncn3)=C(O)C3(CCCC3)N2C)c(F)c1F)C(C)C [Example 445] | 9.2
27 | CN1N(Cc2ccc(NCCCN3CCOCC3)c(F)c2F)C(=O)C(C(=O)Nc2ccc(C(F)(F)F)cc2-c2cc(C(F)(F)F)ncn2)=C(O)C12CCCC2 [Example 446] | 11.1
28 | CN1N(Cc2ccc(NCCN3CCOCC3)c(F)c2F)C(=O)C(C(=O)Nc2ccc(C(F)(F)F)cc2-c2cc(C(F)(F)F)ncn2)=C(O)C12CCCC2 [Example 447] | 15.8
